Laboratory results reported in PMC7497641, “Neurotropic activity and safety of methylene-cycloalkylacetate (MCA) derivative 3-(3-allyl-2-methylenecyclohexyl) propanoic acid” (ACS Chemical Neuroscience, 2020).
pEC50, pIC50: −log10 of the molar value.

How the values were obtained:
[1] = target: T1, 5-Hydroxy tryptamine (Serotonin) Receptor 1A (HTR1A) (Homo sapiens, UniProt P08908); experiment: SAFETYscan GPCR cAMP; assay type: cell-based
T1 construct: host or cells: cAMP Hunter cell lines

[2] = target: T2, Vascular endothelial growth factor receptor 2 (KDR tyrosine kinase) (VEGFR2) (Homo sapiens, UniProt P35968); experiment: SAFETYscan KINOMEscan binding assay; conditions: Inhibitor
T2 construct: host or cells: E. coli BL21-derived host (T7 phage) or HEK-293

[3] = target: A tetrodotoxin-resistant voltage-gated sodium channel (NAVI1.5) (Homo sapiens, UniProt Q14524); experiment: cell-based
[4] = target: Adrenergic Receptor α1A (ADRA1A) (Homo sapiens, UniProt P35348); experiment: SAFETYscan GPCR Calcium Flux; assay type: cell-based
Adrenergic Receptor α1A (ADRA1A), sequence (P35348 whole entry): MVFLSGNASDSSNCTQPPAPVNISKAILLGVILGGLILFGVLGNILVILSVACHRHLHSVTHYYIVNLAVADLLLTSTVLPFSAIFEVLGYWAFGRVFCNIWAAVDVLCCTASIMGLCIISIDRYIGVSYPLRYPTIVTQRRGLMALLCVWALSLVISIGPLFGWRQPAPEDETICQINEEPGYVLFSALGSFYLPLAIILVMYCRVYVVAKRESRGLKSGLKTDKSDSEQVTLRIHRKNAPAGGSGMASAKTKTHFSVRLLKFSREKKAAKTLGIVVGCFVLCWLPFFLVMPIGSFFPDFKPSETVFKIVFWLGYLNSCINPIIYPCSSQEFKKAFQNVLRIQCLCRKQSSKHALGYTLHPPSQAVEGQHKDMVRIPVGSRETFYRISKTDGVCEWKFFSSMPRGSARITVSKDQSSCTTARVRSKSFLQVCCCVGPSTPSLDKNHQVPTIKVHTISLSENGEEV

[5] = tested on: PC12 dopaminergic cell cultures; experiment: PC12 neurotropic (neurite outgrowth) assay; assay type: cell-based, rat
[6] = target: Nuclear Hormone Androgen Receptor (AR) (Homo sapiens, UniProt P10275); experiment: SAFETYscan Nuclear Hormone Receptor assay; assay type: cell-based
Nuclear Hormone Androgen Receptor (AR), sequence (P10275 whole entry): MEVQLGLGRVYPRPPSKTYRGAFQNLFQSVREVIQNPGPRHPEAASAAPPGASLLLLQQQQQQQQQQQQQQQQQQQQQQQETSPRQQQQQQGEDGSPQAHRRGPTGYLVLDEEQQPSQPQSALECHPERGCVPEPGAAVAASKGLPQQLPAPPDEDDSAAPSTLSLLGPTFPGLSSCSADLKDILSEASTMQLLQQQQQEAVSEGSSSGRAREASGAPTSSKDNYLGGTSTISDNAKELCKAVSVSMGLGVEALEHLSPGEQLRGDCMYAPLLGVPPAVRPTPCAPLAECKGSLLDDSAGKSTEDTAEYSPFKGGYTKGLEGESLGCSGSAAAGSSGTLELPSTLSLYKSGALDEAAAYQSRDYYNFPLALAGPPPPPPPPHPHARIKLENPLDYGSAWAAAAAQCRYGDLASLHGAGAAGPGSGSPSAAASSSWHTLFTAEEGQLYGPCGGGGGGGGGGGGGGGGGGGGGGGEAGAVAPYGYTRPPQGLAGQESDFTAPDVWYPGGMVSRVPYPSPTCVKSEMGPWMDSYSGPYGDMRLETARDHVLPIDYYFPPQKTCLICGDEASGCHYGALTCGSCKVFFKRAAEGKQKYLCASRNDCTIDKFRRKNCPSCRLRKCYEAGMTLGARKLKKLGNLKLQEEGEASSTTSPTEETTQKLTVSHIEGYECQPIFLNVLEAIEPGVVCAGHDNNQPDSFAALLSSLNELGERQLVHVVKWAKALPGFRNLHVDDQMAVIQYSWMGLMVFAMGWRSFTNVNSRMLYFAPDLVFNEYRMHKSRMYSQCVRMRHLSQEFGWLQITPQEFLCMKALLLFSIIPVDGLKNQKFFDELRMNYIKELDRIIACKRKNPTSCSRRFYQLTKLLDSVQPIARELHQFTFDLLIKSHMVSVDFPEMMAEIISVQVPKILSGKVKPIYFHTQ

[7] = Blood hematology and biochemistry after intravenous injection; assay type: in vivo; conditions: 250 mg/kg IV; 24 h from injection
[8] = target: T3, cAMP-specific 3′,5′-cyclic phospho-diesterase 4D2 (PDE4D2) (Homo sapiens, UniProt Q08499); experiment: SAFETYscan Enzymatic assay; assay type: biochemical; conditions: Inhibitor
T3 construct: purchased Signal Chem
T3 sequence (Q08499 303-809): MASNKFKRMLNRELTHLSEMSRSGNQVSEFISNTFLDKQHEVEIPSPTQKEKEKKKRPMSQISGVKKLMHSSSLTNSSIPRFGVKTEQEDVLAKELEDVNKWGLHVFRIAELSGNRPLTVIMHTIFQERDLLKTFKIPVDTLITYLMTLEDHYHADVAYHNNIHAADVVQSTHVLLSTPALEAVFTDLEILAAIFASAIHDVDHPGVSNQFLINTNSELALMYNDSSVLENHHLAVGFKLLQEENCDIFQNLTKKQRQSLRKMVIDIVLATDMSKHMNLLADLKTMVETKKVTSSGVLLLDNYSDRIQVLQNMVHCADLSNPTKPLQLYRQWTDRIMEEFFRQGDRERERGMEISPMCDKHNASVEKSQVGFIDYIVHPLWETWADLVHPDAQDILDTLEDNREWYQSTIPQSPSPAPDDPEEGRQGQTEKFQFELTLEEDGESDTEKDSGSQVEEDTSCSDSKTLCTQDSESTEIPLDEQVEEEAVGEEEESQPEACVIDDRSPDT

[9] = target: T4, Dopamine Receptor D1 (DRD1) (Homo sapiens, UniProt P21728); experiment: SAFETYscan GPCR cAMP; assay type: cell-based
T4 construct: host or cells: cAMP Hunter cell lines

[10] = target: T5, Monoamine oxidase type A (MAOA) (Homo sapiens, UniProt P21397); experiment: SAFETYscan Enzymatic assay; assay type: biochemical; conditions: Inhibitor
T5 construct: purchased Sigma-Aldrich-Merck

[11] = target: T6, Serotonin transporter (SERT) (Homo sapiens, UniProt P31645); experiment: cell-based; conditions: Blocker
T6 construct: host or cells: unnamed DiscoverX cell line
T6 sequence (P31645 whole entry): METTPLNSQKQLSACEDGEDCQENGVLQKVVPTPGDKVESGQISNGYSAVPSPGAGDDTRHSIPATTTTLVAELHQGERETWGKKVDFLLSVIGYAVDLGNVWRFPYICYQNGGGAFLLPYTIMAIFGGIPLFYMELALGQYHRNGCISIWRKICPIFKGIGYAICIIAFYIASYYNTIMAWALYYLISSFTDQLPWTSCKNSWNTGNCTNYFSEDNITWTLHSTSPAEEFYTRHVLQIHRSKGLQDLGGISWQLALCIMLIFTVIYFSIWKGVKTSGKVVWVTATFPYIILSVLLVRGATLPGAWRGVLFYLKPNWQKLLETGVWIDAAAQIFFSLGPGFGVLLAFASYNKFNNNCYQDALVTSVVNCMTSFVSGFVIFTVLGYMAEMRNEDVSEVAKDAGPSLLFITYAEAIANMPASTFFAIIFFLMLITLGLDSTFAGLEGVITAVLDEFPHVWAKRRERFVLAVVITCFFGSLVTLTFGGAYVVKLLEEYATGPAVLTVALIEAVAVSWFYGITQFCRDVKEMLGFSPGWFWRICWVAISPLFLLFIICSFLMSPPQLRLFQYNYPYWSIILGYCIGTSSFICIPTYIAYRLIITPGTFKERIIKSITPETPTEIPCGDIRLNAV

[12] = target: 5-Hydroxy tryptamine (Serotonin) Receptor 2B (HTR2B) (Homo sapiens, UniProt P41595); experiment: SAFETYscan GPCR Calcium Flux; assay type: cell-based
[13] = target: T7, Cannabinoid Receptor 2 (CNR2) (Homo sapiens, UniProt P34972); experiment: SAFETYscan GPCR cAMP; assay type: cell-based
T7 construct: host or cells: cAMP Hunter cell lines
T7 sequence (P34972 whole entry): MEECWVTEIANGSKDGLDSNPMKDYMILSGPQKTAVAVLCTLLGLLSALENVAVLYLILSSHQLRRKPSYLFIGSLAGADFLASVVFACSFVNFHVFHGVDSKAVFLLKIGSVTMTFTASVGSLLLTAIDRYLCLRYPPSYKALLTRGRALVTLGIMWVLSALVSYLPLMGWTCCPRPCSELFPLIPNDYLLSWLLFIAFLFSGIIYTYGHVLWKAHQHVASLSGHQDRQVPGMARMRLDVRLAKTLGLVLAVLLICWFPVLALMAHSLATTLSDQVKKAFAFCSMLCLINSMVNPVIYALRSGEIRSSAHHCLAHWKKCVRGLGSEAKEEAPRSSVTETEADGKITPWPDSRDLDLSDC

Cyclooxygenase 2 (COX 2) = target: T8, Cyclooxygenase 2 (COX 2) (Homo sapiens, UniProt P35354); experiment: biochemical; conditions: Inhibitor, Enzymatic
T8 construct: purchased BPS Bioscience
T8 sequence (P35354 18-604): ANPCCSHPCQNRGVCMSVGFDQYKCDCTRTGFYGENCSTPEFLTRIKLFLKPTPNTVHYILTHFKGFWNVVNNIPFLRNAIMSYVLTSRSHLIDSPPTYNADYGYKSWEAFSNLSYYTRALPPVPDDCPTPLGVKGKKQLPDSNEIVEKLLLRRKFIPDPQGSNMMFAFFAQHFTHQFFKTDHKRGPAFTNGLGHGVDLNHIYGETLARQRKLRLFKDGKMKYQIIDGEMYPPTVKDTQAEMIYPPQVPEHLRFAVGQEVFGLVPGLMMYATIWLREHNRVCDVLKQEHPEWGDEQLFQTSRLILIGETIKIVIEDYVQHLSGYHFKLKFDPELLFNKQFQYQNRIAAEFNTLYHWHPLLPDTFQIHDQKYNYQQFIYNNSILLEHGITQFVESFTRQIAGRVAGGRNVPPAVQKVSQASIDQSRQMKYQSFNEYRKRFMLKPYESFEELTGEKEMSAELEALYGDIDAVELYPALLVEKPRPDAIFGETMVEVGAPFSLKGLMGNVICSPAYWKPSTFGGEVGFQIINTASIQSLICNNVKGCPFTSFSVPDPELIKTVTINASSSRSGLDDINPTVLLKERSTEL

[14] = target: T9, Adrenergic Receptor α2A (ADRA2A) (Homo sapiens, UniProt P08913); experiment: SAFETYscan GPCR cAMP; assay type: cell-based
T9 construct: host or cells: cAMP Hunter cell lines
T9 sequence (P08913 whole entry): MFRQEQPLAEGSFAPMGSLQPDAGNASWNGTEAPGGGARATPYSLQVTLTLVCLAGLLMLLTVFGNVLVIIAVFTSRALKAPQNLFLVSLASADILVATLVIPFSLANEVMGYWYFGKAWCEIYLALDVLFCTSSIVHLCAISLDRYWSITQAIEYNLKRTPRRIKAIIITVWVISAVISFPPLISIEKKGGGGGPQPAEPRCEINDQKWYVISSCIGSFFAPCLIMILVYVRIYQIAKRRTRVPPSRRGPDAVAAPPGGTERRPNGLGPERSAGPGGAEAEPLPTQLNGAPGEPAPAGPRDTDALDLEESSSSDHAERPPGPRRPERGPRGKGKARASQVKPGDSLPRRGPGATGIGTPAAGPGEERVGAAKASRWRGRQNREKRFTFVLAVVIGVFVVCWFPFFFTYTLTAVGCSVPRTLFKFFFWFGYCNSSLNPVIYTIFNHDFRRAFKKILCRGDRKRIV

[15] = target: T10, 5-Hydroxy tryptamine (Serotonin) Receptor 1B (HTR1B) (Homo sapiens, UniProt P28222); experiment: SAFETYscan GPCR cAMP; assay type: cell-based
T10 construct: host or cells: cAMP Hunter cell lines
T10 sequence (P28222 whole entry): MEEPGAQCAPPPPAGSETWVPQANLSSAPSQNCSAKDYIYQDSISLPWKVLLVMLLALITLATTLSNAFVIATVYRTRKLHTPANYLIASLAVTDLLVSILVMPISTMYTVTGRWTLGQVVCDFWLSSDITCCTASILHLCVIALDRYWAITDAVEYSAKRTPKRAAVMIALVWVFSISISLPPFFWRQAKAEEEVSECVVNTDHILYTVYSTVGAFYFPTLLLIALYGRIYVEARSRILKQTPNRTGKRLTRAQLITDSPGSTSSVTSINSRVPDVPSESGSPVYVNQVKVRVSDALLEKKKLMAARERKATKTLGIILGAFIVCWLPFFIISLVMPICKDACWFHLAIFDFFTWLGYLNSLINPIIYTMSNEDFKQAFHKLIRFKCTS

[16] = target: Histamine Receptor H2 (HRH2) (Homo sapiens, UniProt P25021); experiment: SAFETYscan GPCR cAMP; assay type: cell-based; conditions: read-out: RC50 (the source's name)
Histamine Receptor H2 (HRH2), sequence (P25021 whole entry): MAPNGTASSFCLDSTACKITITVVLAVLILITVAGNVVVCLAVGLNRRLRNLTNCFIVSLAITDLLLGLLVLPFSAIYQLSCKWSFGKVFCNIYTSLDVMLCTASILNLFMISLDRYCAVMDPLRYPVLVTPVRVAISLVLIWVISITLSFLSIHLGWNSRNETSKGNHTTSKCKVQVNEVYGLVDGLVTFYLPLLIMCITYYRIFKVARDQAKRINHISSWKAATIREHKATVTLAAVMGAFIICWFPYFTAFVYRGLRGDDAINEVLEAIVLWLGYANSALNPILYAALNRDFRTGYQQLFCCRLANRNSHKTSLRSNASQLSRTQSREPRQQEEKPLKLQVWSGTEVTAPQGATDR

[17] = target: Histamine Receptor H1 (HRH1) (Homo sapiens, UniProt P35367); experiment: SAFETYscan GPCR Calcium Flux; assay type: cell-based; conditions: read-out: RC50 (the source's name)
[18] = target: T11, Dopamine transporter (DAT) (Homo sapiens, UniProt Q01959); experiment: SAFETYscan Transporter assay; assay type: cell-based
T11 construct: host or cells: unnamed DiscoverX cell line

[19] = target: T12, Norepinephrine transporter (NET) (Homo sapiens, UniProt P23975); experiment: SAFETYscan Transporter assay; assay type: cell-based
T12 construct: host or cells: unnamed DiscoverX cell line

[20] = target: T13, cGMP-inhibited cyclic nucleotide phospho-diesterase 3A (PDE3A) (Homo sapiens, UniProt Q14432); experiment: SAFETYscan Enzymatic assay; assay type: biochemical; conditions: Inhibitor
T13 construct: purchased Signal Chem

[21] = target: Endothelin Receptor Type A (EDNRA) (Homo sapiens, UniProt P25101); experiment: SAFETYscan GPCR Calcium Flux; assay type: cell-based; conditions: read-out: RC50 (the source's name)
Cyclooxygenase 1 (COX 1) = target: T14, Cyclooxygenase 1 (COX 1) (Homo sapiens, UniProt P23219); experiment: biochemical; conditions: Inhibitor, Enzymatic
T14 construct: purchased BPS Bioscience

[22] = 10 μM, read-out: MCA-13 Max. Responce
[23] = read-out: RC50 (the source's name)
[24] = 10 μM, Blocker, Transporter, read-out: MCA-13 Max. Responce

C=CCC1CCCC(CCC(=O)O)C1=C (centres unmarked) [HU-MCA-13, 3-(3-allyl-2-methylenecyclohexyl)propanoic acid]
pEC50 [1]: < 5.00
pIC50 [1]: < 5.00
inhibition at 10 µM [2, 22]: 21.7%
pIC50 [2, 23]: < 5.00
pIC50 [3]: < 5.00
pEC50 [4]: < 5.00
pIC50 [4]: < 5.00
neurotropic effect in the presence of Trk A inhibitor K252a ([5]; 250 nM K252a, 10 μM HU-MCA-13): did not abolished
β tubulin III expression in cell bodies and neurite outgrowths (immunostaining) ([5]; 5 μM, 7 days): expressed β tubulin III
neurite outgrowth ([5]; HU-MCA-13 1 μM): 10–15%
neurite outgrowth, Df ([5]; HU-MCA-13 1 μM): 0.04
pEC50 [6]: < 5.00
pIC50 [6]: < 5.00
bilirubin concentration versus DMSO [7]: small significant increase
blood count versus DMSO [7]: No difference
coagulation parameters versus DMSO [7]: No difference
electrolytes versus DMSO [7]: No difference
kidney and liver parameters versus DMSO [7]: lack of differences
inhibition at 10 µM [8, 22]: 0%
pIC50 [8, 23]: < 5.00
pEC50 [9]: < 5.00
pIC50 [9]: < 5.00
inhibition at 10 µM [10, 22]: 1.86%
pIC50 [10, 23]: < 5.00
inhibition at 10 µM [11, 22]: 15.4%
pIC50 [11, 23]: < 5.00
pEC50 [12]: < 5.00
pIC50 [12]: < 5.00
pEC50 [13]: < 5.00
pIC50 [13]: < 5.00
inhibition at 10 µM (Cyclooxygenase 2 (COX 2); [22]): 7.99%
pIC50 (Cyclooxygenase 2 (COX 2); [23]): < 5.00
pEC50 [14]: < 5.00
pIC50 [14]: < 5.00
pEC50 [15]: < 5.00
pIC50 [15]: < 5.00
pEC50 ([16]; Agonist): < 5.00
pIC50 ([16]; Antagonist): < 5.00
pEC50 ([17]; Agonist): < 5.00
pIC50 ([17]; Antagonist): < 5.00
pIC50 [18]: < 5.00
inhibition at 10 µM [18, 24]: 0%
pIC50 [19]: < 5.00
inhibition at 10 µM [19, 24]: 3.53%
inhibition at 10 µM [20, 22]: 3.21%
pIC50 [20, 23]: < 5.00
pEC50 ([21]; Agonist): < 5.00
pIC50 ([21]; Antagonist): < 5.00
inhibition at 10 µM (Cyclooxygenase 1 (COX 1); [22]): 25%
pIC50 (Cyclooxygenase 1 (COX 1); [23]): < 5.00
